How the values were obtained:
[1] = In vitro metabolism in hepatic microsomes (LC/MS); assay type: in vitro ADME, rat; conditions: for compound disappearance (loss) in hepatic microsomes: 30 min, 37° C.
Description: (§1) In Vitro Metabolism in Hepatic Microsomes—A compound of structure (I) was incubated for specified times at 37° C. with rat liver microsomes (e.g., 1 mg protein/ml; Sigma-Aldrich, St. Louis, Mo.) in potassium phosphate buffer (100 mM) containing NADPH (0 or 1 mM). The mixture was then chilled on ice, and 0.5 ml of ice-cold ethyl acetate was added. Samples were centrifuged for 15 min at 3,000 rpm, and the supernatant was evaporated to dryness under nitrogen. The residue was dissolved in 150 μl mobile phase (acetonitrile:water 3:1, containing 0.1% formic acid) for LC/MS analysis. Reverse-phase HPLC separations were carried out using a Waters C18 column (2.1×100 mm, […]) equipped with a solvent delivery system (Waters model 2690, Milford, Mass.). The solvent system consisted of a linear gradient from 5 to 95% acetonitrile run over 16 min (0.2 mL/min flow rate). Mass spectra were acquired on an Alliance HT 2790+ZQ mass spectrometer using negative ion detection.
as §1, with “Liquid Chromatography/Mass Spectrometry—Compounds (each at 5 μM) were” for “In Vitro Metabolism in Hepatic Microsomes—A compound of structure (I) was”, “(1” for “(e.g., 1”, “150” for “150 μl”, “detection, scanning from 150 to 1500 Da. The electrospray ion source parameters were as follows: capillary voltage 3.5 kV (positive ion mode), cone voltage 37 V, source temperature 120° C., desolvation temperature 250° C., cone gas flow 25 L/h, and dessolvation gas flow 350 L/h.” for “detection.”
PPQ-102 is a small-molecule inhibitor of CFTR chloride conductance with efficacy in preventing and reversing cyst formation in an organ culture model of PKD (see, e.g., Tradtrantip et al., J. Med. Chem. 2009, supra; Int'l Patent Appl. Publication No. WO 2011/019737). Preliminary analysis of the metabolic stability and aqueous solubility of PPQ-102, indicated poorer metabolic stability and lower water solubility (˜2 μM in albumin-free saline) than desired for optimal drugability. In vitro metabolic stability was determined by compound incubation with hepatic microsomes at 37° C. for specified times in the absence vs. presence of NADPH, following by LC/MS analysis. Shown in FIG. 6A is PPQ-102 disappearance in hepatic microsomes in the presence of NADPH, with ˜60% disappearance in 30 min.

[2] = Mouse pharmacokinetics and renal accumulation (LC/MS); assay type: in vivo
Description: Mouse Pharmacokinetics and Renal Accumulation—A compound of structure (I) was formulated at 1 mg/mL in 5% DMSO, 2.5% Tween-80 and 2.5% PEG400 in H2O, based on formulations used for compounds of similar polarity and chemical properties. Male mice in a CD1 genetic background (age 8-10 weeks, 25-35 g) were administered 300 μL of the BPO-27 formulation by intraperitoneal injection. At specified times kidneys were removed following renal arterial perfusion with PBS. Kidneys were weighed, mixed with acetic acid (100 μl per 1 g tissue) and ethyl acetate (10 mL per 1 g tissue), and homogenized. The homogenate was centrifuged at 3,000 rpm for 15 min. Calibration standards were prepared in kidney homogenates from control mice to which was added known amounts of BPO-27. The ethyl acetate-containing supernatant was dried under nitrogen and the residue was reconstituted in acetonitrile:H2O (3:1) containing 0.1% formic acid. For analysis of blood and urine, fluids were diluted with equal volume of water and extracted with ethyl acetate. LC/MS analysis was carried out as described herein.
PPQ-102 was undetectable in serum, kidney, and urine at 30-60 min after intravenous bolus administration of 300 μg PPQ-102 in mice using an LC/MS assay with sensitivity better than 100 nM. […] To improve on the drug-like properties of PPQ-102, a series of compound analogs were synthesized and tested.
BPO-27 pharmacokinetics in mice was measured following bolus intraperitoneal administration in an aqueous formulation in 5% DMSO, 2.5% Tween-80 and 2.5% PEG400 in water. BPO-27 was measured by LC/MS in kidney, blood and urine. […] The assay was linear with a detection sensitivity of better than 100 nM BPO-27. […] FIG. 11C summarizes the deduced BPO-27 concentrations in kidney, blood and urine over time. The t1/2 for disappearance of the original compound was approximately 2 h.

SMILES | compound disappearance (loss) in hepatic microsomes ([1]; in the presence of NADPH) [%] | metabolic stability in hepatic microsomes (in words) ([1]; in the presence of NADPH) | half-life ([2]; male, CD1, mouse, in vivo, ip, 300 μg, mice, bolus intraperitoneal administration, read-out: t1/2 for disappearance of the original compound (converted)) [min] | compound concentration in kidney, blood and urine ([2]; mice, for many hours following single intraperitoneal dose) | compound metabolized in hepatic microsomes ([1]; 4 h, in the presence of NADPH) [%] | compound loss in hepatic microsomes ([1]; in the absence of NADPH) | compound in serum, kidney, and urine ([2]; 30-60 min after intravenous bolus of 300 μg in mice, LC/MS sensitivity better than 100 nM)
Cn1c(=O)c2c(-c3ccccc3)n3c(c2n(C)c1=O)C(c1ccc(Br)o1)Oc1ccc(C(=O)O)cc1-3 (racemic) [BPO-27, 6-(5-Bromofuran-2-yl)-7,9-dimethyl-8,10-dioxo-11-phenyl-7,8,9,10-tetrahydro-6H-benzo[b]pyrimido[4′,5′:3,4]pyrrolo[1,2-d][1,4]oxazine-2-carboxylic acid] | < 5 | excellent stability | ~120 | greater than 4 nM | – | – | –
Cc1ccc(C2Nc3ccccc3-n3c(-c4ccccc4)c4c(=O)n(C)c(=O)n(C)c4c32)o1 (centres unmarked) [PPQ-102, 7,9-Dimethyl-6-(5-methylfuran-2-yl)-11-phenyl-5,6-dihydropyrimido[4′,5′-3,4]pyrrolo[1,2-a]quinoxaline-8,10-(7H,9H)-dione, reference compound] | ~60 | – | – | – | > 75 | No loss | undetectable
